This note sets out measurements from patent US10995068B2, “Synthetic sphingolipid-like molecules, drugs, methods of their synthesis and methods of treatment” (The Regents of the University of California, priority 2015, dated 2021).

Read-outs that look alike come from different tables or passages of the source.

Test [1] concerns DU145 prostate cancer cells. As to the kind of experiment: Cell Titer Glo proliferation assay in DU145. As to conditions: Mean ± SEM, n ≥ 3, read-out: IC50 values in prostate cancer cell lines, DU145. It is filed as cell-based, human. As for the experimental part: (§1) Previously presented compounds 1-4 (FIG. 23), compounds 5-8 (FIG. 28), and control compound FTY720 (FIG. 2) were used to treat the well-established PC3 and DU145 prostate cancer lines (FIG. 29 and Table 1). A Cell Titer Glo assay was performed to measure proliferation of the cancer lines.
(§2) Cell culture studies: Sup-B15 cells are maintained at 2-3 million/mL in RPMI 1640 (Mediatech) supplemented with 10% fetal calf serum (FCS, Sigma-Aldrich), 10 mM Hepes (Mediatech), 55 μM β-mercaptoethanol (Sigma-Aldrich), 2 mM L-glutamine (Mediatech), and antibiotics. All adherent cells are maintained at 70-80% confluence. Cell are cultured in the following media: PC3 & A549, Ham's F12K (Corning Cell Gro) supplemented with 10% FCS and antibiotics; DU145 cells, MEM (Corning Cell Gro) supplemented with 10% FCS, 1 mM sodium pyruvate (Mediatech), and antibiotics; SW620 & MDA-MB-231, DMEM (Corning Cell Gro) with 10% FCS, 1 mM sodium pyruvate (Mediatech), and antibiotics; Panc-1 cells, DMEM (Corning Cell Gro) supplemented with 10% FCS and antibiotics. All of the above cell lines are available from the ATCC.
(§3) Viability assays: Cell Titer Glo assays (Cell Titer Glo Luminescent Cell Viability Assay kit, cat #G7571, Promega Corporation) are performed in clear bottom 96-well black cell culture plates (cat #655090, Greiner Bio-One, NC, USA). After plating at 1,000 cells/well in volume of 100 μl, cells are left undisturbed for at least 24 h before drug addition. After 72 h, cells are prepared for analysis by adding 10 μl of 0.1% Triton-X100 in PBS with shaking for 1 min at room temperature (RT). Cell Titer-Glo cell lysis reagent (20 μl) is then added followed by 1 min of shaking and a 10 min incubation in the dark at RT. Luminescence is detected using an IVIS imaging system (IVIS Lumina II, Perkin Elmer, USA). […] IC50s are determined using GraphPad Prism (GraphPad Software, Inc, La Jolla, Calif.). SupB-15 viability was determined by flow cytometry. Cell Titer Glo assays were performed with the other cell lines.

For test [2], the system named is PC3 prostate cancer cells. As to the kind of experiment: Cell Titer Glo proliferation assay in PC3. It is filed as cell-based, human. The settings on record: Cell Titer Glo, 72 h, Mean ± SEM, n ≥ 3, read-out: IC50 values in prostate cancer cell lines, PC3. The protocol: as §1, §2, §3
In another test the target is T1, S1P receptor 3 (Homo sapiens, UniProt Q99500).
T1 construct: expressed in transfected cells
T1 sequence (Q99500 whole entry): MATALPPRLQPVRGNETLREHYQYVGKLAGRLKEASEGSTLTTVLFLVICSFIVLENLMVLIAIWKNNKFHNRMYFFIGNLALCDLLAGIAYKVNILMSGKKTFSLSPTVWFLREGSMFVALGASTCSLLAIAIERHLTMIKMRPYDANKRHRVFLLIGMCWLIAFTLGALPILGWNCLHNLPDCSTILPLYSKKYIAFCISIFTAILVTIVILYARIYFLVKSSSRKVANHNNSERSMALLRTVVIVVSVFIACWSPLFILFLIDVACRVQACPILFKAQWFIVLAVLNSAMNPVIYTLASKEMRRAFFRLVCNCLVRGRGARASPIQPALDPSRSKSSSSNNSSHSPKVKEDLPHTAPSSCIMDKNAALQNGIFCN
In words: S1P receptor activation in CHO cells, S1P3. As to conditions: CHO cells over-expressing human S1P3. It is filed as cell-based. The text has this: (§4) Phosphorylation may have effects on S1P receptor activity that could cause bradycardia. Bradycardia, the dose-limiting toxicity that prevents the use of FTY720 in cancer patients, stems from FTY720-P's actions on S1P receptors 1 and 3. (Camm, J., et al. (2014) Am. Heart J. 168, 632-644; Cohen, J. A., Chun, J. (2011) Ann. Neurol. 69, 759-777; Sanna, M. G., et al. (2004) J. Biol. Chem. 279, 13839-13848; the disclosures of which are incorporated herein by reference). Phosphorylation by sphingosine kinase may make compounds competent to activate S1P receptors. FTY720, for example, when phosphorylated is known to activate S1P receptors 1 and 3. Because compound 5 could be phosphorylated, the activity of compound 5 and its phosphate 5-P (FIG. 28) on S1P receptors was evaluated (FIG. 32).
(§5) 51P1-5 activation: Chinese hamster ovary (CHO) cells stably over-expressing the different human 51P receptor subtypes are used. S1P1, S1P4 and S1P5 overexpressing CHO cells are cultured in medium containing alpha-MEM supplemented with 10% FBS, 50 μg/ml gentamycin and 0.5 mg/ml G418. S1P2 and S1P3 overexpressing CHO cells are cultured in RPMI containing 10% FBS, 50 μg/ml gentamycin and 0.5 mg/ml G418. Prior to stimulation, cells are rendered serum-free for 24 h. Stimulation is carried out for 10 min in serum-free DMEM containing 0.1 mg/ml of fatty-acid free BSA in the absence or presence of the various compounds or 51P. Protein lysates are prepared using a buffer containing (50 mM Tris pH 7.4, 150 mM NaCl, 10% glycerol, 1% Triton X-100, 2 mM EDTA, 2 mM EGTA, 40 mM β-glycerophosphate, 50 mM sodium fluoride, 10 mM sodium pyrophosphate, 2 mM dithiothreitol, 0.2 mM sodium orthovanadate). Cells are homogenized by one 5 sec burst in a MSE Ultrasonic Disintegrator, centrifuged and taken for protein determination. Equal amounts of protein are separated by SDS-PAGE (10% polyacrylamide gel), transferred to nitrocellulose membranes and subjected to Western blot analysis. Bands were stained using IRDye® secondary antibodies and visualized by the LICOR Odyssey® Fc Imaging system. Antibodies against phospho-Thr202/Tyr204-p42/p44-MAPK and phospho-Ser PKC substrate are from Cell Signaling, Frankfurt am Main, Germany. Polyclonal antisera against total p42 and total p44 were generated and characterized as previously described. (Huwiler, A.; Pfeilschifter, J. Br. J. Pharmacol. 1994, 113, 1455-1463; disclosure of which is incorporated herein by reference).

A further test concerns the target T2, S1P receptor 4 (Homo sapiens, UniProt O95977).
T2 construct: expressed in transfected cells
T2 sequence (O95977 1-384): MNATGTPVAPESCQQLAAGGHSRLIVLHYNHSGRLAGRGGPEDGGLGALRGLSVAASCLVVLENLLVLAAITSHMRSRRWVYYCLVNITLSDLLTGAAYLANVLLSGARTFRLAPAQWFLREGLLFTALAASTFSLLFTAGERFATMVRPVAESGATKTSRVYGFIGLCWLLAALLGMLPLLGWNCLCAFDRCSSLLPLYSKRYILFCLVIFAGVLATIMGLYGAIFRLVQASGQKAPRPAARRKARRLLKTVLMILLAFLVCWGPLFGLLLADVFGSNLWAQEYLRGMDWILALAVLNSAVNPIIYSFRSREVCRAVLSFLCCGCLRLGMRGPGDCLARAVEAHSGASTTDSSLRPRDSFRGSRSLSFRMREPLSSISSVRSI
In words: S1P receptor activation in CHO cells, S1P4. It is filed as cell-based. As to conditions: CHO cells over-expressing human S1P4.
Text: as §4, §5

In the next test the target is T3, S1P receptor 2 (Homo sapiens, UniProt O95136).
T3 construct: expressed in transfected cells
T3 sequence (O95136 whole entry): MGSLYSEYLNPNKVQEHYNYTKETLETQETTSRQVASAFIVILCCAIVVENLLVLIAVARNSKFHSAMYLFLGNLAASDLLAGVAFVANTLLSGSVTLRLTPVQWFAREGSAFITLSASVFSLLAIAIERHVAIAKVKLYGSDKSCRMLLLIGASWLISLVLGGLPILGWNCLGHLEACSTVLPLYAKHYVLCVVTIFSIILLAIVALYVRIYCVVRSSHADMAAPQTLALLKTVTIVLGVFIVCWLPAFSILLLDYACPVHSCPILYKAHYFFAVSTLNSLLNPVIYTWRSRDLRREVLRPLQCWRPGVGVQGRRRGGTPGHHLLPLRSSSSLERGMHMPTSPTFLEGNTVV
As to the kind of experiment: S1P receptor activation in CHO cells, S1P2. The settings on record: CHO cells over-expressing human S1P2. It is filed as cell-based.
Text: as §4, §5

Another test deals with T4, S1P receptor 1 (Homo sapiens, UniProt P21453).
T4 construct: expressed in transfected cells
T4 sequence (P21453 whole entry): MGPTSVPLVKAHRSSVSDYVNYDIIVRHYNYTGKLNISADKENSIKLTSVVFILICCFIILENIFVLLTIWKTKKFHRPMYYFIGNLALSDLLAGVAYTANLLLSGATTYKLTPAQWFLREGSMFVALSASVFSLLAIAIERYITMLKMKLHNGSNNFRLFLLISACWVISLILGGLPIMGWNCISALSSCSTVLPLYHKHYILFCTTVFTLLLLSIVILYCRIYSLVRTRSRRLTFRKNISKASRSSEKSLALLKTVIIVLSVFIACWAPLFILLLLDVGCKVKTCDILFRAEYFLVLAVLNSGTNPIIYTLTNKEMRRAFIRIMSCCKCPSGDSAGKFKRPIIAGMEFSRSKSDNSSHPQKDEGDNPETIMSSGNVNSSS
As to the kind of experiment: S1P receptor activation in CHO cells, S1P1. It is filed as cell-based. As to conditions: CHO cells over-expressing human S1P1, 10 min stimulation, Western blot.
Text: as §4, §5

The target in a further test is T5, S1P receptor 5 (Homo sapiens, UniProt Q9H228).
T5 construct: expressed in transfected cells
T5 sequence (Q9H228 whole entry): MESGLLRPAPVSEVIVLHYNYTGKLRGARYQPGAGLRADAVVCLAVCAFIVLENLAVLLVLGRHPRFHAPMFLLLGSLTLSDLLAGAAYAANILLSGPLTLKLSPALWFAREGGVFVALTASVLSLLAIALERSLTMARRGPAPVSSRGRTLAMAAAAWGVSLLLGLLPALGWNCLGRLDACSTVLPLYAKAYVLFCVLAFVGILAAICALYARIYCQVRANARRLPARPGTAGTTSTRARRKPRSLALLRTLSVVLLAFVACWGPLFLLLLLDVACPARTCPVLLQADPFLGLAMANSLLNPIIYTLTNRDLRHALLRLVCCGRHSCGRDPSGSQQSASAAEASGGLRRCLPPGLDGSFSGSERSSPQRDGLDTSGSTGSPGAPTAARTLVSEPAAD
In words: S1P receptor activation in CHO cells, S1P5. The class given is cell-based. As to conditions: CHO cells over-expressing human S1P5.
Text: as §4, §5

In test [3] the test system is PC3 prostate cancer cells. As to the kind of experiment: Cell viability by vital dye exclusion and flow cytometry in PC3. The class given is cell-based, human. As to conditions: Homo sapiens; vital dye exclusion (DAPI) and flow cytometry, 72 h. As for the experimental part:
Thus, to determine whether analogues in accordance with embodiments of the invention are cytotoxic, studies were conducted using vital dye exclusion and flow cytometry (Table 2).
as §3

In the case of `CCCCCCCCc1ccc([C@@H]2CC(=O)N[C@@H]2CO)cc1` [Compound 11], the IC50 in test [1] (72 h) and in test [2] was > 20 µM in each case.

With `CCCCCCCCc1ccc([C@@H]2CC(=O)N[C@H]2CO)cc1` [Compound 9, (4S,5R)-5-(hydroxymethyl)-4-(4-octylphenyl)Pyrrolidin-2-one], the IC50 is > 20 µM in test [1] (Homo sapiens, DU-145, 72 h) and > 20 µM in test [2] (Homo sapiens).

`CCCCCCCCc1ccc([C@@H]2CCN[C@H]2C)cc1.Cl` [Compound 12]: the “activation of S1P receptor 3” value on S1P receptor 3 was “not able to activate”. The figures for the IC50 in test [1] (72 h) and in test [2] were 5 ± 0.1 µM and 4.1 ± 0.4 µM, respectively. For the same compound, the “activation of S1P receptor 4” value on S1P receptor 4 is “not able to activate”. Moreover, at S1P receptor 2, the “activation of S1P receptor 2” value is recorded as “not able to activate”. Also, at S1P receptor 1, the “activation of S1P receptor 1” value is on record as “not able to activate”. The “activation of S1P receptor 5” value at S1P receptor 5 is recorded as “not able to activate”.

In the case of `CCCCCCCCCCCCC/C=C/[C@@H](O)[C@@H](N)COP(=O)(O)O` [Compound S1P, sphingosine-1 phosphate, reference compound], the “activation of S1P receptor 3” value on S1P receptor 3 is listed as “activated”. At S1P receptor 4, the “activation of S1P receptor 4” value is “activated”. For the same compound, on S1P receptor 2, the “activation of S1P receptor 2” value is “activated”. At S1P receptor 1, the “activation of S1P receptor 1” value is reported as “activated”. Further, at S1P receptor 5, the “activation of S1P receptor 5” value is given as “activated”.

On to `CCCCCCCCc1ccc(C2CCNC2CO)cc1` (stereo not shown) [Compound 8], for which the IC50 was determined as 5.4 ± 0.3 µM in test [1] (72 h) and 6.5 ± 0.3 µM in test [2].

For `CCCCCCCCc1ccc([C@H]2CC(=O)N[C@H]2CO)cc1` [Compound 10], the IC50 in test [1] (72 h) and in test [2] was > 20 µM throughout.

As for `CCCCCCCCc1ccc([C@H]2CCN[C@@H]2C)cc1` [Compound 13], the IC50 in test [1] (72 h) was 5.1 ± 0.6 µM; in test [2], 4.4 ± 0.6 µM.

Turning to `CCCCCCCCc1ccc([C@H]2C[C@H](CO)N[C@H]2CO)cc1` [Compound 1, (2R,3R,5R)-2,5-bis-hydroxymethyl-3-(4-octyl)phenyl pyrrolidine], the IC50 turned out to be 7.3 ± 0.8 µM in test [1] (72 h) and 7 ± 0.3 µM in test [2].

As for `CCCCCCCCc1ccc([C@H]2C[C@H](CO)N[C@H]2CO)cc1` [Compound 3, (2R,3R,5R)-2,5-Bis(hydroxymethyl)-3-(4-octylphenyl)pyrrolidinium chloride], the IC50 came out at 5.3 ± 0.2 µM in test [1] (Homo sapiens, DU-145, 72 h); 8.3 ± 0.2 µM in test [3]; 4.9 ± 0.6 µM in test [2] (Homo sapiens).

For `CCCCCCCCc1ccc(C2CCNC2CO)cc1` (stereo not shown) [Compound 7], the IC50 in test [1] (72 h) stood at 5.3 ± 0.7 µM; in test [2] it was 5.5 ± 0.7 µM.

Turning to `CCCCCCCCc1ccc([C@@H]2C[C@@H](CO)N[C@@H]2CO)cc1` [Compound 2], the IC50 was 5.7 ± 0.4 µM in test [1] (72 h) and 6.1 ± 1 µM in test [2].
